# Reference: ChEMBL document CHEMBL4354822, “Ligand-Based Design of Nondimethylphenyl-Diarylpyrimidines with Improved Metabolic Stability, Safety, and Oral Pharmacokinetic Profiles” (J Med Chem, 2019)
# Tests used:
# [1] = tested on: Human immunodeficiency virus 1; test: Antiviral activity against HIV1 3B infected in human MT4 cells incubated assessed as reduction in virus-induced cytopathic effect for 5 days by MTT assay; assay type: functional, organism-based; settings: Human immunodeficiency virus 1, 3B, MT4, 120 h
# [2] = tested on: MT4; test: Cytotoxicity against human MT4 cells assessed as reduction in cell viability incubated for 5 days by MTT assay; assay type: functional; settings: MT4, 120 h
# [3] = Selectivity index, ratio of CC50 for human MT4 cells to EC50 for antiviral activity against HIV1 3B infected in human MT4 cells incubated for 5 days by MTT assay; assay type: toxicity, cell-based; settings: MT4 cells (uninfected for CC50; HIV-1 3B infected for EC50)
# [4] = Aqueous solubility of compound at 2 mg measured for 24 hrs by HPLC analysis; assay type: physicochemical; settings: aqueous medium
# [5] = tested on: Human immunodeficiency virus 1; test: Antiviral activity against HIV1 harboring reverse transcriptase L100I mutant infected in human MT4 cells assessed as reduction in virus-induced cytopathic effect incubated for 5 days by MTT assay; assay type: functional, organism-based; settings: Human immunodeficiency virus 1, MT4, 120 h
# [6] = tested on: Human immunodeficiency virus 1; test: Antiviral activity against HIV1 harboring reverse transcriptase K103N mutant infected in human MT4 cells assessed as reduction in virus-induced cytopathic effect incubated for 5 days by MTT assay; assay type: functional, organism-based; settings: Human immunodeficiency virus 1, MT4, 120 h
# [7] = tested on: Human immunodeficiency virus 1; test: Antiviral activity against HIV1 harboring reverse transcriptase Y181C mutant infected in human MT4 cells assessed as reduction in virus-induced cytopathic effect incubated for 5 days by MTT assay; assay type: functional, organism-based; settings: Human immunodeficiency virus 1, MT4, 120 h
# [8] = tested on: Human immunodeficiency virus 1; test: Antiviral activity against HIV1 harboring reverse transcriptase Y188L mutant infected in human MT4 cells assessed as reduction in virus-induced cytopathic effect incubated for 5 days by MTT assay; assay type: functional, organism-based; settings: Human immunodeficiency virus 1, MT4, 120 h
# [9] = tested on: Human immunodeficiency virus 1; test: Antiviral activity against HIV1 harboring reverse transcriptase E138K mutant infected in human MT4 cells assessed as reduction in virus-induced cytopathic effect incubated for 5 days by MTT assay; assay type: functional, organism-based; settings: Human immunodeficiency virus 1, MT4, 120 h
# [10] = target: Human immunodeficiency virus type 1 reverse transcriptase (Human immunodeficiency virus 1, UniProt Q72547); test: Inhibition of recombinant wild type HIV1 reverse transcriptase p66/p51 incubated for 40 mins by picogreen dye-based spectrofluorometric analysis
# [11] = target: Human immunodeficiency virus type 1 reverse transcriptase (Human immunodeficiency virus 1) (UniProt Q72547); test: Ratio of IC50 for nevirapine to IC50 for test compound for recombinant wild type HIV1 reverse transcriptase p66/p51
smiles,measurement,setting,value
COc1cc(Oc2ccnc(Nc3ccc(C#N)cc3)n2)ccc1-c1ccc(C#N)cc1,EC50,[1],3.1 nM
same,CC50,[2],> 298000 nM
same,selectivity ratio at 120 h,[3],> 100000
N#Cc1ccc(Nc2nccc(Nc3c(F)cc(-c4ccc(C#N)cc4)cc3F)n2)cc1.O=S(=O)(O)c1ccccc1,solubility at 24 h,[4],0.39 µg/mL
Cc1cc(Oc2ccnc(Nc3ccc(C#N)cc3)n2)ccc1-c1ccc(C#N)cc1,EC50,[1],719 nM
same,CC50,[2],29400 nM
same,selectivity ratio at 120 h,[3],41
N#Cc1ccc(Nc2nccc(Oc3ccc(-c4ccc(C#N)c(Cl)c4)cc3Cl)n2)cc1,EC50,[1],63.5 nM
same,CC50,[2],14900 nM
same,selectivity ratio at 120 h,[3],232
Cc1cc(-c2ccc(Oc3ccnc(Nc4ccc(C#N)cc4)n3)c(F)c2)ccc1C#N,EC50,[1],49.9 nM
same,CC50,[2],> 297000 nM
same,selectivity ratio at 120 h,[3],> 6020
N#Cc1ccc(Nc2nccc(Oc3ccc(-c4ccc(C#N)cc4)cc3Cl)n2)cc1,EC50,[1],1.7 nM
same,CC50,[2],> 295000 nM
same,selectivity ratio at 120 h,[3],> 179000
same,EC50,[5],11.3 nM
same,EC50,[6],< 3.8 nM
same,EC50,[7],13.7 nM
same,EC50,[8],330 nM
same,EC50,[9],< 3.8 nM
same,IC50,[10],8.3 nM
same,Ratio IC50,[11],21 to 109
N#Cc1ccc(Nc2nccc(Nc3c(F)cc(-c4ccc(C#N)cc4)cc3F)n2)cc1,Ratio IC50,[11],21 to 109
N#Cc1ccc(Nc2nccc(Oc3ccc(-c4ccc(C#N)cc4Cl)cc3Cl)n2)cc1,EC50,[1],4990 nM
same,CC50,[2],> 273000 nM
same,selectivity ratio at 120 h,[3],> 55
Cc1cc(C#N)ccc1-c1ccc(Oc2ccnc(Nc3ccc(C#N)cc3)n2)c(F)c1,EC50,[1],66.5 nM
same,CC50,[2],> 297000 nM
same,selectivity ratio at 120 h,[3],> 4460
Cc1cc(Nc2ccnc(Nc3ccc(C#N)cc3)n2)ccc1-c1ccc(C#N)cc1,EC50,[1],13.9 nM
same,CC50,[2],12400 nM
same,selectivity ratio at 120 h,[3],894
Cc1cc(-c2ccc(C#N)cc2)ccc1Nc1ccnc(Nc2ccc(C#N)cc2)n1,EC50,[1],2.1 nM
same,CC50,[2],9200 nM
same,selectivity ratio at 120 h,[3],4480
same,EC50,[5],16.7 nM
same,EC50,[6],3 nM
same,EC50,[7],9 nM
same,EC50,[8],240 nM
same,EC50,[9],3 nM
same,IC50,[10],< 6.2 nM
same,Ratio IC50,[11],21 to 109
N#Cc1ccc(Nc2nccc(Oc3ccc(-c4ccc(C#N)cc4)c(C(F)(F)F)c3)n2)cc1,EC50,[1],18.2 nM
same,CC50,[2],> 273000 nM
same,selectivity ratio at 120 h,[3],> 15000
N#Cc1ccc(Nc2nccc(Oc3ccc(-c4ccc(C#N)cc4)cc3F)n2)cc1,EC50,[1],1.8 nM
same,CC50,[2],> 307000 nM
same,selectivity ratio at 120 h,[3],> 172000
same,EC50,[5],63.9 nM
same,EC50,[6],12.3 nM
same,EC50,[7],49.1 nM
same,EC50,[8],> 307000 nM
same,EC50,[9],6.4 nM
same,IC50,[10],< 3.7 nM
same,Ratio IC50,[11],21 to 109
Cc1cc(-c2ccc(C#N)cc2)c(Cl)cc1Oc1ccnc(Nc2ccc(C#N)cc2)n1,EC50,[1],4.6 nM
same,CC50,[2],> 286000 nM
same,selectivity ratio at 120 h,[3],> 63300
same,EC50,[5],8.5 nM
same,EC50,[6],3.7 nM
same,EC50,[7],32 nM
same,EC50,[8],> 286000 nM
same,EC50,[9],11.9 nM
same,IC50,[10],18.8 nM
same,Ratio IC50,[11],21 to 109
COc1cc(-c2ccc(C#N)cc2)ccc1Oc1ccnc(Nc2ccc(C#N)cc2)n1,EC50,[1],1.6 nM
same,CC50,[2],> 298000 nM
same,selectivity ratio at 120 h,[3],> 192000
same,EC50,[5],11.9 nM
same,EC50,[6],4.5 nM
same,EC50,[7],16.7 nM
same,EC50,[8],> 298000 nM
same,EC50,[9],2 nM
same,IC50,[10],9.3 nM
same,Ratio IC50,[11],21 to 109
Cc1ccnc2c1NC(=O)c1cccnc1N2C1CC1 [NEVIRAPINE],CC50,[2],> 15000 nM
same,EC50,[5],2100 nM
same,EC50,[6],> 10100 nM
same,EC50,[7],> 15900 nM
N#Cc1ccc(Nc2nccc(Oc3ccc(-c4ccc(C#N)cc4)c(F)c3F)n2)cc1,EC50,[1],15.3 nM
same,CC50,[2],> 294000 nM
same,selectivity ratio at 120 h,[3],> 19200
O=C1Nc2ccc(Cl)cc2[C@@](C#CC2CC2)(C(F)(F)F)O1 [EFAVIRENZ],EC50,[1],7.4 nM
same,CC50,[2],> 6340 nM
same,EC50,[5],44 nM
same,EC50,[6],102 nM
same,EC50,[7],7.3 nM
same,EC50,[8],290 nM
same,EC50,[9],6.3 nM
Cc1cc(-c2ccc(C#N)c(F)c2)ccc1Oc1ccnc(Nc2ccc(C#N)cc2)n1,EC50,[1],17.1 nM
same,CC50,[2],> 297000 nM
same,selectivity ratio at 120 h,[3],> 17400
N#Cc1ccc(Nc2nccc(Nc3ccc(-c4ccc(C#N)cc4)cc3F)n2)cc1,EC50,[1],11.3 nM
same,CC50,[2],308000 nM
same,selectivity ratio at 120 h,[3],> 27300
N#Cc1ccc(Nc2nccc(Oc3ccc(-c4ccc(C#N)cc4F)cc3F)n2)cc1,EC50,[1],3.1 nM
same,CC50,[2],> 294000 nM
same,selectivity ratio at 120 h,[3],> 98000
N#Cc1ccc(Nc2nccc(Nc3c(F)cc(-c4ccc(C#N)cc4)cc3F)n2)cc1.O=CO,solubility at 24 h,[4],0.35 µg/mL
CS(=O)(=O)O.N#Cc1ccc(Nc2nccc(Nc3c(F)cc(-c4ccc(C#N)cc4)cc3F)n2)cc1,solubility at 24 h,[4],0.88 µg/mL
N#Cc1ccc(Nc2nccc(Oc3ccc(-c4ccc(C#N)cc4)c(F)c3)n2)cc1,EC50,[1],3.2 nM
same,CC50,[2],> 307000 nM
same,selectivity ratio at 120 h,[3],> 98000
Cc1cc(-c2ccc(C#N)cc2F)ccc1Oc1ccnc(Nc2ccc(C#N)cc2)n1,EC50,[1],10.7 nM
same,CC50,[2],> 297000 nM
same,selectivity ratio at 120 h,[3],> 27500
same,EC50,[5],13.2 nM
same,EC50,[6],4.7 nM
same,EC50,[7],14.6 nM
same,EC50,[8],> 294000 nM
same,EC50,[9],4.9 nM
same,IC50,[10],8.7 nM
same,Ratio IC50,[11],21 to 109
N#Cc1ccc(Nc2nccc(Oc3c(F)cc(-c4ccc(C#N)cc4)cc3F)n2)cc1,EC50,[1],3.3 nM
same,CC50,[2],> 294000 nM
same,selectivity ratio at 120 h,[3],> 89300
same,EC50,[5],17.2 nM
same,EC50,[6],3.5 nM
same,EC50,[7],23.5 nM
same,EC50,[8],> 294000 nM
same,EC50,[9],5.2 nM
same,IC50,[10],13.2 nM
same,Ratio IC50,[11],21 to 109
N#Cc1ccc(Nc2nccc(Oc3ccc(-c4ccc(C#N)c(F)c4)cc3F)n2)cc1,EC50,[1],120 nM
same,CC50,[2],> 294000 nM
same,selectivity ratio at 120 h,[3],> 2430
Cc1cc(-c2ccc(C#N)cc2)ccc1Oc1ccnc(Nc2ccc(C#N)cc2)n1,EC50,[1],2.5 nM
same,CC50,[2],> 310000 nM
same,selectivity ratio at 120 h,[3],> 122000
same,EC50,[5],47.1 nM
same,EC50,[6],8.7 nM
same,EC50,[7],18.4 nM
same,EC50,[8],14400 nM
same,EC50,[9],6.2 nM
same,IC50,[10],5.5 nM
same,Ratio IC50,[11],21 to 109
N#Cc1ccc(Nc2nccc(Oc3ccc(-c4ccc(C#N)cc4)c(Cl)c3)n2)cc1,EC50,[1],9.9 nM
same,CC50,[2],31100 nM
same,selectivity ratio at 120 h,[3],3130
N#Cc1ccc(Nc2nccc(Oc3ccc(-c4ccc(C#N)cc4)cc3C(F)(F)F)n2)cc1,EC50,[1],6.8 nM
same,CC50,[2],> 273000 nM
same,selectivity ratio at 120 h,[3],> 40600
N#Cc1ccc(Nc2nccc(Nc3ccc(-c4ccc(C#N)cc4)c(F)c3)n2)cc1,EC50,[1],14.5 nM
same,CC50,[2],> 271000 nM
same,selectivity ratio at 120 h,[3],> 18600
COc1cc(Nc2ccnc(Nc3ccc(C#N)cc3)n2)ccc1-c1ccc(C#N)cc1,EC50,[1],17.5 nM
same,CC50,[2],5260 nM
same,selectivity ratio at 120 h,[3],304
COc1cc(-c2ccc(C#N)cc2)ccc1Nc1ccnc(Nc2ccc(C#N)cc2)n1,EC50,[1],2.9 nM
same,CC50,[2],> 299000 nM
same,selectivity ratio at 120 h,[3],> 106000
same,EC50,[5],122 nM
same,EC50,[6],18.4 nM
same,EC50,[7],158 nM
same,EC50,[8],> 299000 nM
same,EC50,[9],7.4 nM
same,IC50,[10],6 nM
same,Ratio IC50,[11],21 to 109
